From patent publication US10538521B2, “Pyrimidine derivative having antimalarial activity” (CARNA BIOSCIENCES, INC., priority 2016, dated 2020)

Experiments:
[1] = tested on: K1 strain, a drug resistant strain of Plasmodium falciparum; experiment: In vitro antimalarial assay (p-LDH, Malstat), K1 strain; format: cell-based; conditions: P. falciparum K1 (drug resistant), 72 h culture, p-LDH readout, read-out: Antimalarial activity (IC50 value), Strain K1
Procedure, shortened: (§1)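 P. falciparum FCR3 and K1 cultured in human erythrocytes (RPMI 1640, 10% human plasma; 2% hematocrit, 0.5 or 1% parasitaemia) with compound at 12.5 to 0.0001 μM final for 72 h at 37° C (3% O2-4% CO2-93% N2). Growth read as p-LDH activity (Malstat/NBT-PES, A655 nm) after freeze-thaw; IC50 from concentration-response curve.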

[2] = tested on: FCR3 strain, a drug sensitive strain of Plasmodium falciparum; experiment: In vitro antimalarial assay (p-LDH, Malstat), FCR3 strain; format: cell-based; conditions: P. falciparum FCR3 (drug sensitive), 72 h culture, p-LDH readout, read-out: Antimalarial activity (IC50 value), Strain FCR3
Procedure, shortened: as §1

Row | Structure (SMILES) | IC50 [1] [nM] | IC50 [2] [nM]
1 | Fc1ncccc1Nc1nc(Nc2ccn3ccnc3c2)cc(N2CCOCC2)n1 [Example 11, N2-(2-Fluoropyridin-3-yl)-N4-(imidazo[1,2-a]pyridin-7-yl)-6-morpholinopyrimidine-2,4-diamine] | 1000 to 10000 | 100 to 1000
2 | Cc1ccc(Nc2nc(Nc3ccn4ccnc4c3)cc(N3CCOCC3)n2)nc1C [Example 87, N2-(5,6-dimethylpyridin-2-yl)-N4-(imidazo[1,2-a]pyridin-7-yl)-6-morpholinopyrimidine-2,4-diamine] | < 100 | < 100
3 | Cc1cc(C)nc(Nc2nc(Nc3ccn4ccnc4c3)cc(N3CCCC(C)C3)n2)c1 (stereo not shown) [Example 184, N2-(4,6-dimethylpyridin-2-yl)-N4-(imidazo[1,2-a]pyridin-7-yl)-6-(3-methylpiperidin-1-yl) pyrimidine-2,4-diamine] | 100 to 1000 | 100 to 1000
4 | Cc1cc(C)nc(Nc2nc(Nc3ccn4ccnc4c3)cc(N3CCC(C)C3)n2)c1 (stereo not shown) [Example 146, N2-(4,6-dimethylpyridin-2-yl)-N4-(imidazo[1,2-a]pyridin-7-yl)-6-(3-methylpyrrolidin-1-yl)pyrimidine-2,4-diamine] | < 100 | < 100
5 | COc1cccc(Nc2nc(Nc3ccn4ccnc4c3)cc(N3CCCC3)n2)n1 [Example 143, N4-(imidazo[1,2-a]pyridin-7-yl)-N2-(6-methoxypyridin-2-yl)-6-(pyrrolidin-1-yl)pyrimidine-2,4-diamine] | 100 to 1000 | 1000 to 10000
6 | CCc1ccnc(Nc2nc(Nc3ccn4ccnc4c3)cc(N3CCC(CO)CC3)n2)c1 [Example 119, (1-(2-((4-ethylpyridin-2-yl)amino)-6-(imidazo[1,2-a]pyridin-7-ylamino)pyrimidin-4-yl)piperidin-4-yl)methanol] | < 100 | < 100
7 | CCc1ccnc(Nc2nc(Nc3ccn4ccnc4c3)cc(N3CC[C@@H](N(C)C)C3)n2)c1 [Example 125, (R)-6-(3-(dimethylamino)pyrrolidin-1-yl)-N2-(4-ethylpyridin-2-yl)-N4-(imidazo[1,2-a]pyridin-7-yl)pyrimidine-2,4-diamine] | < 100 | < 100
8 | COc1ncccc1Nc1nc(Nc2ccn3ccnc3c2)cc(N2CCOCC2)n1 [Example 5, N4-(Imidazo[1,2-a]pyridin-7-yl)-N2-(2-methoxypyridin-3-yl)-6-morpholinopyrimidine-2,4-diamine] | 1000 to 10000 | 1000 to 10000
9 | Cc1cc(C)nc(Nc2nc(Nc3ccn4ccnc4c3)cc(N3CC(C)(C)C3)n2)c1 [Example 177, 6-(3,3-dimethylazetidin-1-yl)-N2-(4,6-dimethylpyridin-2-yl)-N4-(imidazo[1,2-a]pyridin-7-yl)pyrimidine-2,4-diamine] | < 100 | < 100
10 | Cc1cc(C)nc(Nc2nc(Nc3ccn4ccnc4c3)cc(N3CCC(N4CCCCC4)CC3)n2)c1 [Example 133, 6-([1,4′-bipiperidin]-1′-yl)-N2-(4,6-dimethylpyridin-2-yl)-N4-(imidazo[1,2-a]pyridin-7-yl)pyrimidine-2,4-diamine] | < 100 | < 100
11 | CC(C)Oc1cccc(Nc2nc(Nc3ccn4ccnc4c3)cc(N3CCCC3)n2)n1 [Example 153, N4-(imidazo[1,2-a]pyridin-7-yl)-N2-(6-isopropoxypyridin-2-yl)-6-(pyrrolidin-1-yl)pyrimidine-2,4-diamine] | < 100 | < 100
12 | Fc1ccc(Nc2nc(Nc3ccn4ccnc4c3)cc(N3CCOCC3)n2)cn1 [Example 12, N2-(6-Fluoropyridin-3-yl)-N4-(imidazo[1,2-a]pyridin-7-yl)-6-morpholinopyrimidine-2,4-diamine] | 100 to 1000 | 100 to 1000
13 | CC(C)c1cccc(Nc2nc(Nc3ccn4ccnc4c3)cc(N3CCCCC3)n2)n1 [Example 121, N4-(imidazo[1,2-a]pyridin-7-yl)-N2-(6-isopropylpyridin-2-yl)-6-(piperidin-1-yl)pyrimidine-2,4-diamine] | 100 to 1000 | < 100
14 | COc1cc(Nc2ccn3ccnc3c2)nc(Nc2cc(C)cc(C)n2)n1 [Example 86, N2-(4,6-dimethylpyridin-2-yl)-N4-(imidazo[1,2-a]pyridin-7-yl)-6-methoxypyrimidine-2,4-diamine] | 100 to 1000 | 100 to 1000
15 | Cc1cc(C)nc(Nc2nc(Nc3ccn4ccnc4c3)cc(N3CCC(C)CC3)n2)c1 [Example 183, N2-(4,6-dimethylpyridin-2-yl)-N4-(imidazo[1,2-a]pyridin-7-yl)-6-(4-methylpiperidin-1-yl) pyrimidine-2,4-diamine] | 100 to 1000 | 100 to 1000
16 | CCc1ccnc(Nc2nc(Nc3ccn4ccnc4c3)cc(N3CCC(N(C)C)CC3)n2)c1 [Example 129, 6-(4-(dimethylamino)piperidin-1-yl)-N2-(4-ethylpyridin-2-yl)-N4-(imidazo[1,2-a]pyridin-7-yl)pyrimidine-2,4-diamine] | < 100 | < 100

Row | Structure (SMILES) | IC50 [1] [nM] | IC50 [2] [nM]
17 | COC1CCN(c2cc(Nc3ccn4ccnc4c3)nc(Nc3cc(C)cc(C)n3)n2)C1 (stereo not shown) [Example 140, N2-(4,6-dimethylpyridin-2-yl)-N4-(imidazo[1,2-a]pyridin-7-yl)-6-(3-methoxypyrrolidin-1-yl)pyrimidine-2,4-diamine] | < 100 | < 100
18 | Cc1ccc(Nc2nc(Nc3ccn4ccnc4c3)cc(N3CCOCC3)n2)nc1 [Example 18, N4-(Imidazo[1,2-a]pyridin-7-yl)-N2-(5-methylpyridin-2-yl)-6-morpholinopyrimidine-2,4-diamine] | < 100 | < 100
19 | c1ncc(Nc2nc(Nc3ccn4ccnc4c3)cc(N3CCOCC3)n2)cn1 [Example 8, N4-(Imidazo[1,2-a]pyridin-7-yl)-6-morpholino-N2-(pyrimidin-5-yl)pyrimidine-2,4-diamine] | 1000 to 10000 | 100 to 1000
20 | CCCCc1cccc(Nc2nc(Nc3ccn4ccnc4c3)cc(N3CC4(COC4)C3)n2)n1 [Example 181, N2-(6-butylpyridin-2-yl)-N4-(imidazo[1,2-a]pyridin-7-yl)-6-(2-oxa-6-azaspiro[3.3]heptan-6-yl)pyrimidine-2,4-diamine] | < 100 | 100 to 1000
21 | CCOc1cc(Nc2ccn3ccnc3c2)nc(Nc2cc(C)ccn2)n1 [Example 36, 6-ethoxy-N4-(imidazo[1,2-a]pyridin-7-yl)-N2-(4-methylpyridin-2-yl) pyrimidine-2,4-diamine] | 1000 to 10000 | 1000 to 10000
22 | Cc1cccc(Nc2nc(N)cc(Nc3ccn4ccnc4c3)n2)n1 [Example 54, N4-(Imidazo[1,2-a]pyridin-7-yl)-N2-(6-methylpyridin-2-yl) pyrimidine-2,4,6-triamine] | < 100 | < 100
23 | Cc1ccnc(Nc2nc(Nc3ccn4ccnc4c3)cc(N3CCOCC3)n2)c1 [Example 17, N4-(Imidazo[1,2-a]pyridin-7-yl)-N2-(4-methylpyridin-2-yl)-6-morpholinopyrimidine-2,4-diamine] | < 100 | < 100
24 | Fc1ccc(Nc2nc(Nc3ccn4ccnc4c3)cc(N3CCOCC3)n2)nc1 [Example 13, N2-(5-Fluoropyridin-2-yl)-N4-(imidazo[1,2-a]pyridin-7-yl)-6-morpholinopyrimidine-2,4-diamine] | 100 to 1000 | < 100
25 | Cc1cc(C)nc(Nc2nc(Nc3ccccc3)cc(Nc3ccn4ccnc4c3)n2)c1 [Example 195, N2-(4,6-dimethylpyridin-2-yl)-N4-(imidazo[1,2-a]pyridin-7-yl)-N6-phenylpyrimidine-2,4,6-triamine] | 100 to 1000 | 100 to 1000
26 | CC(C)c1ccnc(Nc2nc(Nc3ccn4ccnc4c3)cc(N3CCOCC3)n2)c1 [Example 70, N4-(imidazo[1,2-a]pyridin-7-yl)-N2-(4-isopropylpyridin-2-yl)-6-morpholinopyrimidine-2,4-diamine] | < 100 | < 100
27 | COc1cc(CF)nc(Nc2nc(Nc3ccn4ccnc4c3)cc(N3CCCCC3)n2)c1 [Example 191, N2-(6-(fluoromethyl)-4-methoxypyridin-2-yl)-N4-(imidazo [1,2-a]pyridin-7-yl)-6-(piperidin-1-yl)pyrimidine-2,4-diamine] | 100 to 1000 | 100 to 1000
28 | CCOc1cc(Nc2ccn3ccnc3c2)nc(Nc2cc(C)cc(C)n2)n1 [Example 33, N2-(4,6-dimethylpyridin-2-yl)-6-ethoxy-N4-(imidazo[1,2-a]pyridin-7-yl)pyrimidine-2,4-diamine] | 100 to 1000 | < 100
29 | CC(C)(C)Cc1cccc(Nc2nc(Nc3ccn4ccnc4c3)cc(N3CCCC3)n2)n1 [Example 162, N4-(imidazo[1,2-a]pyridin-7-yl)-N2-(6-neopentylpyridin-2-yl)-6-(pyrrolidin-1-yl)pyrimidine-2,4-diamine] | 100 to 1000 | < 100
30 | CCCCc1cc(CC)cc(Nc2nc(Nc3ccn4ccnc4c3)cc(N3CCCCC3)n2)n1 [Example 201, N2-(6-butyl-4-ethylpyridin-2-yl)-N4-(imidazo[1,2-a]pyridin-7-yl)-6-(piperidin-1-yl) pyrimidine-2,4-diamine] | 100 to 1000 | 100 to 1000
31 | FC(F)(F)c1ccnc(Nc2nc(Nc3ccn4ccnc4c3)cc(N3CCOCC3)n2)c1 [Example 47, N4-(imidazo[1,2-a]pyridin-7-yl)-6-morpholino-N2-(4-(trifluoromethyl)pyridin-2-yl) pyrimidine-2,4-diamine] | 100 to 1000 | < 100
32 | CCOCc1cccc(Nc2nc(Nc3ccn4ccnc4c3)cc(N3CCCC3)n2)n1 [Example 171, N2-[6-(ethoxymethyl)pyridin-2-yl]-N4-(imidazo[1,2-a]pyridin-7-yl)-6-(pyrrolidin-1-yl) pyrimidine-2,4-diamine] | 100 to 1000 | 100 to 1000
